The values below come from BindingDB's records for doi:10.1021/jm061242y (Elan Pharmaceuticals, 2007).

The assay concerns the target Beta-secretase 1 (Homo sapiens, UniProt P56817). Briefly: BACE Enzyme Inhibition Assay. The conditions noted are these: pH 4.8; 37 °C. On the procedure:
Beta-cleavage ELISA assays were carried out in reaction buffer containing enzyme, substrate MBP-C125, and test compounds. Generated beta-cleaved product was detected using biotinylated Sw192 or biotinyated Wt192 as specific reporter antibodies and quantitated against the appropriate MBP-C125 standard.

Beta-secretase 1, sequence (P56817 whole entry): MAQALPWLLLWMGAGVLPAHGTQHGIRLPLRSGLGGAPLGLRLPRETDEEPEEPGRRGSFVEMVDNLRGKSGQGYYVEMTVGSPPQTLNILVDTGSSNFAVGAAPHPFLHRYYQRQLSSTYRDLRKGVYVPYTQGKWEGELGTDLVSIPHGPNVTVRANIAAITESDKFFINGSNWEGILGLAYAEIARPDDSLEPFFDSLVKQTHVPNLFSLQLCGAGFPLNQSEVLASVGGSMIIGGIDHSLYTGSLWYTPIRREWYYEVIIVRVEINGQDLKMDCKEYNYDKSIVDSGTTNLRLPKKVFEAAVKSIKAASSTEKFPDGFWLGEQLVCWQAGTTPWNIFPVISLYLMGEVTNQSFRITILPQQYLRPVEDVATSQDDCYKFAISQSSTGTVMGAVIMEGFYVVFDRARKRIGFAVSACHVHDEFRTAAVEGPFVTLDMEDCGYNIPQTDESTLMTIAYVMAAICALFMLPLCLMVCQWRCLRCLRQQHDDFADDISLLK

As to `CCCN(CCC)C(=O)c1cccc(C(=O)N[C@@H](Cc2cc(F)cc(F)c2)[C@@H](O)C[C@@H](C)C(=O)NCC(C)C)c1`, half-maximal inhibition (IC50) required 0.03 µM. This counts as double-digit nanomolar.

`CCCN(CCC)C(=O)c1cccc(C(=O)N[C@@H](Cc2cc(F)cc(F)c2)[C@@H](O)CN[C@@H](C)C(=O)NCC(C)C)c1` [N-[(1S,2S)-1-(3,5-difluorobenzyl)-2-hydroxy-3-({(1S)-1-methyl-2-[(2-methylpropyl)amino]-2-oxoethyl}amino)propyl]-N,N-dipropylbenzene-1,3-dicarboxamide]: inhibition was half-maximal at 68 µM (IC50).
